Measured values published in PMC7919409, “Crystal structures of adenylylated and unadenylylated PII protein GlnK from Corynebacterium glutamicum” (Acta Crystallographica. Section D, Structural Biology, 2021).

Target: T1, adGlnK (adenylylated GlnK) (Corynebacterium glutamicum, UniProt H7C694)
T1 construct: gene glnB; full length, untagged (stop codon inserted before Xa-Strep tag), produced in C. glutamicum; Tyr51 O-adenylylated (AMP covalently attached); homotrimer, hexamer in crystal; 112 residues
Test: X-ray crystal structure, […] A
Assay type: binding
Details: fortuitously bound, co-purified (no nucleotide added), one of six effector sites at subunit interface, Tyr51 adenylylated, Mg, Ca, pH 7.1, 292 K

T1 sequence (H7C694 entry or part of it): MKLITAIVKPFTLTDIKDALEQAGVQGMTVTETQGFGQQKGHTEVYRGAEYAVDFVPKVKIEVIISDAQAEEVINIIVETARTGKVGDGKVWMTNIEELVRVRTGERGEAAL

SMILES: Nc1ncnc2c1ncn2[C@@H]1O[C@H](COP(=O)(O)O)[C@@H](O)[C@H]1O [AMP]
- X-ray crystal structure, 1.8 A (non-covalent AMP in ATP-binding pocket, distinct from): fortuitous binding of AMP and ADP was observed in the remaining two binding sites

SMILES: Nc1ncnc2c1ncn2[C@@H]1O[C@H](COP(=O)(O)OP(=O)(O)O)[C@@H](O)[C@H]1O [ADP]
- X-ray crystal structure, 1.8 A: fortuitous binding of AMP and ADP was observed in the remaining two binding sites
